Consider 1 compound from paper PMC5860131, “Identification of natural products as novel ligands for the human 5-HT2C receptor” (Biophysics Reports, 2018).

One assay concerns the target T1, 5-HT2C receptor (Homo sapiens, UniProt P28335).
T1 construct: expressed in transfected cells; host or cells: HEK 293T, stably transfected
T1 sequence (P28335 33-458): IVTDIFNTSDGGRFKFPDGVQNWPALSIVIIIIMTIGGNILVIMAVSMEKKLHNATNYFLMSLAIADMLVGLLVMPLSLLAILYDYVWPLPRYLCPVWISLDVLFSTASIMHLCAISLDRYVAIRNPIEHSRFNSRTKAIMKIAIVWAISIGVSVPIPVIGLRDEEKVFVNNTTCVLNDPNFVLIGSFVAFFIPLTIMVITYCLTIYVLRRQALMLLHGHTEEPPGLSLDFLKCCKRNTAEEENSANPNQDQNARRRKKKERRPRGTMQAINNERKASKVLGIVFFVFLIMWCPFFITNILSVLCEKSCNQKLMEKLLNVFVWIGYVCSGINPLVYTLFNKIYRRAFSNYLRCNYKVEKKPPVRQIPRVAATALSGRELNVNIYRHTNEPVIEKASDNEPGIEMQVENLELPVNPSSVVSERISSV
The experiment in a line: Ca2+ mobilization assay (Fluo-4, FLIPR), HEK 293T cells stably transfected with 5-HT2C. The assay is classed as cell-based. From the text:
The 5-HT2C receptor mainly couples to Gαq proteins. The activated 5-HT2C receptor transmits the signals from the extracellular to the intercellular side using DAG/IP3 (diacyl glycerol/inositol 1,4,5-trisphosphate) as its second massagers (Hannon and Hoyer [2008]). IP3 stimulates the endoplasmic reticulum to release calcium ions into the cytoplasm, which causes the increase of calcium concentration in cytosol. Therefore, calcium mobilization assay is commonly applied to understand how unknown small molecule ligands of 5-HT2C receptor modulate cellular signal transductions. In this case, Fluo-4 Direct dye was used as a fluorescence indicator to detect calcium flux in G protein-coupled receptor expressed cells. The fold of maximum response over average of basal reading is plotted against compound concentration to determine the potency of the compounds (Fig. 3). […]. HEK 293T cells stably transfected with 5-HT2A/2B/2C receptor were seeded in 384-well plates at a density of 15,000 cells/well in DMEM containing 1% dialyzed FBS 8 h before the calcium flux assay. After removing medium, cells were then incubated (20 μl/well) for 1 h at 37 °C with Fluo-4 Direct dye (Invitrogen) reconstituted in FLIPR buffer (1× HBSS, 2.5 mmol/L probenecid, and 20 mmol/L HEPES, pH 7.4). After the dye loaded, cells were placed in a FLIPR^TETRA fluorescence imaging plate reader (Molecular Devices); drug dilutions, prepared at 3× final concentration in FLIPR buffer and aliquotted into 384-well plates, were also added to the FLIPR^TETRA. The fluidics module and plate reader of the FLIPR^TETRA were programmed to read baseline fluorescence for 10 s (1 read/s), then to add 10 μl of drug/well and to read for 6 min (1 read/s). Fluorescence in each well was normalized to the average of the first 10 reads (i.e., baseline fluorescence). Then, the maximum-fold increase, which occurred within 60 s after drug addition, over baseline fluorescence elicited by vehicle or drug was determined. […]

Assay [1] deals with T2, 5-HT2C receptor T139^3.37A (Homo sapiens, UniProt P28335, DEL255-298/G251D/H250E/H252N/INS299[…]/L248D/M247A/M300L/T139A/T253W).
T2 construct: the N- and C-terminals were truncated by 39 and 65 residues, respectively; PreScission protease site + 10× His (C); made in house
The experiment in a line: Affinity MS assay, 5-HT2C mutant T139A. The assay is classed as binding. The conditions noted are these: mutant T139^3.37A, n = 2. From the text:
Based on the binding poses predicted by molecular docking, single-point mutations were designed to test their impact on ligand binding. Mutations of several residues include the highly conserved Asp134^3.32, which is known to cause 5-HT1B or 5-HT2B receptors to abolish the monoamine ligand binding as reported in the literature (Wang et al. [2013]). In this study, residues forming hydrophobic interactions with the substitution groups on the aporphine scaffold of (–)-crebanine (1) were selected for mutation as well and they are Thr139^3.37, Gly218^5.42, Ala222^5.46, and Leu209^ECL2. Effects of those mutations were tested with the CPM assay and the affinity MS assay (Table 2). In the affinity MS experiment, relative ligand-binding capacity (represented by binding %) to different mutants and the wild-type receptor was compared. Among the six mutations tested, five of them reduced the binding of (–)-crebanine (1) by more than 40% relative to binding to the wild-type receptor, displaying the importance of hydrophobic interactions. […]
Four experimental replicates were prepared for each pair of the test ligand and the negative control. […] S/C ratios refer to the ratio of MS response of a specific ligand detected in the 5-HT2C incubation sample versus the control. […]

T2 sequence (P28335 with tags, fused parts or gaps with the stated changes): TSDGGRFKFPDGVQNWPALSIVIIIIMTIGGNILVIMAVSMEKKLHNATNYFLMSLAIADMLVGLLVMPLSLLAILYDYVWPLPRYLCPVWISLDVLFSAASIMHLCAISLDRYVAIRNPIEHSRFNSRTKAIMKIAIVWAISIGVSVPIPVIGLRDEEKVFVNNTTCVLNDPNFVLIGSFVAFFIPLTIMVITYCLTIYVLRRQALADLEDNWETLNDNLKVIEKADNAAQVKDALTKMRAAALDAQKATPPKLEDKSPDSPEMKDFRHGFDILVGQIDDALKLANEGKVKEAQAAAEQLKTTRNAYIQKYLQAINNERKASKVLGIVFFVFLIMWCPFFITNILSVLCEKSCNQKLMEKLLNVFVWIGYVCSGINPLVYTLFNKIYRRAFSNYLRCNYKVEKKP

In general, IC50 refers to the concentration that gives 50% inhibition. A low value points to greater potency. In turn, `COc1ccc2c(c1OC)C[C@@H]1c3c(cc4c(c3-2)OCO4)CCN1C` [Compound 1, (–)-crebanine] showed an IC50 on 5-HT2C receptor of 149 nM. Moreover, the “(–)-Crebanine/MS relative ligand binding” value in assay [1] stood at 14.64%.
